For experiment [1], the system named is urease. The settings on record: granulated urea, Limburgerhof soil; for % N loss based on fertilized N quantity: 10 days' incubation, inhibitor 0.125% (w/w) based on urea, 20° C.; for % N loss relative to NBTPT without mixing partner / % N loss relative to NcHTPT without mixing partner / % N loss relative to NPenTPT without mixing partner / % N loss relative to NiBTPT without mixing partner / % N loss relative to NPTPT without mixing partner: 10 days.
Method: (§1) The efficacy of the (thio)phosphoric triamides, individually and in combination, was tested by a method based on that of Fenn & Kissel ((1973) Ammonia volatilization from surface applications of ammonium compounds on calcareous soils. Soil Sci. Soc. Am. J. 37, 855-859) for their effect in limiting ammonia volatilization from urea or urea-comprising fertilizers. Three different soils in which ammonia volatilization after urea fertilization is particularly pronounced were used. These soils are distinguished by relatively high pH values of >6.5 and/or low base buffering. […] 200 g of dry soil per incubation vessel were moistened with 5.4 ml of fully demineralized water, and 1.087 g of urea (corresponds to 500 mg of urea-N) were applied in the form of granules. If urea-comprising solutions were tested, the 200 g of soil were moistened with an aqueous urea-comprising solution comprising 1.630 g of urea (corresponds to 750 mg of urea-N), without or with urease inhibitor or combinations of these. The solution was applied dropwise over the entire soil surface, using a pipette. The amount of (thio)phosphoric triamides as individual substances or in combination in different proportions was always a uniform 0.125% (w/w) based on urea. The incubations were accomplished at 20° C. (18-22° C.) in a controlled-environment cabinet. The ammonia collected in the acid trap was determined quantitatively as ammonium using a continuous flow analyzer (from Bran+Luebbe), proceeding by methods with which the skilled worker is familiar.

The subject of experiment [2] is urease. The settings on record: Limburgerhof soil; for % N loss based on fertilized N quantity: 30% strength urea solution, 10 days' incubation, inhibitor 0.125% (w/w) based on urea, 20° C.; for % N loss relative to NBTPT without mixing partner / % N loss relative to NcHTPT without mixing partner / % N loss relative to NPenTPT without mixing partner / % N loss relative to NiBTPT without mixing partner / % N loss relative to NPTPT without mixing partner / % N loss relative to NNDBTPT without mixing partner / % N loss relative to NNDiTPT without mixing partner: 30% urea solution, 10 days.
Method: as §1

For experiment [3], the system named is urease. The settings on record: Table 9, granulated urea, soil in Hanover; for % N loss based on fertilized N quantity: 10 days' incubation, inhibitor 0.125% (w/w) based on urea, 20° C.; for % N loss relative to NBTPT without mixing partner / % N loss relative to NPTPT without mixing partner: 10 days, NBTPT/NPTPT series.
Method: as §1
In experiment [4] the test system is urease. The settings on record: Table 10, granulated urea, soil in France; for % N loss based on fertilized N quantity: 10 days' incubation, inhibitor 0.125% (w/w) based on urea, 20° C.; for % N loss relative to NBTPT without mixing partner / % N loss relative to NPTPT without mixing partner: 10 days, NBTPT/NPTPT series.
Method: as §1
Where [5] appears, read: Table 11, comparative experiment.
[6] abbreviates: Table 12, comparative experiment.
The mark [7] stands for this setting: Table 12, NBTPT/NNDiBTPT series.

SMILES strings stand for the structures. Where two headings read alike, the source gives them in different places.

For the molecule `CCCCNP(N)(N)=S` [NBTPT, N-n-butylthiophosphoric triamide], the “% N loss based on fertilized N quantity” value in the experiment on urease [1] (Table 1) came to 1.54%; in the experiment with urease [1] (Table 2) it was 1.54%; in the experiment on urease [1] (Table 3) it was 1.54%; in the experiment on urease [1] (Table 4), 1.54%; with urease [2] (Table 5) it was 0.69%; in the experiment on urease [2] (Table 6) it was 0.71%. Moreover, the “% N loss based on fertilized N quantity” value is 0.33% with urease [2] (Table 7); 0.33% in the experiment with urease [2] (Table 8); 1.90% with urease [2] (setting [5]); 1.90% with urease [2] (setting [6]); 1.32% in the experiment on urease [3]; 1.30% with urease [4]. For the same molecule, the “% N loss relative to NBTPT without mixing partner” value with urease [1] (Table 1, NBTPT/NcHTPT series) amounted to 100%; with urease [1] (Table 2, NBTPT/NPenTPT series), 100%; in the experiment with urease [1] (Table 3, NBTPT/NiBTPT series), 100%; in the experiment with urease [1] (Table 4, NBTPT/NPTPT series), 100%; in the experiment on urease [2] (Table 5, NBTPT/NcHTPT series) it was 100%; in the experiment on urease [2] (Table 6, NBTPT/NPenTPT series), 100%. Besides, the “% N loss relative to NBTPT without mixing partner” value is reported as 100% with urease [2] (Table 7, NBTPT/NiBTPT series); 100% in the experiment on urease [2] (Table 8, NBTPT/NPTPT series); 100% in the experiment with urease [2] (Table 11, NBTPT/NNDBTPT series); 100% in the experiment on urease [2] (setting [7]); 100% in the experiment with urease [3]; 100% in the experiment on urease [4]. Further, the “% N loss relative to NcHTPT without mixing partner” value with urease [1] (Table 1, NBTPT/NcHTPT series) amounted to 56%; with urease [2] (Table 5, NBTPT/NcHTPT series), 62%. The “% N loss relative to NPenTPT without mixing partner” value in the experiment on urease [1] (Table 2, NBTPT/NPenTPT series) came to 63%; with urease [2] (Table 6, NBTPT/NPenTPT series), 63%. Also, the “% N loss relative to NiBTPT without mixing partner” value in the experiment on urease [1] (Table 3, NBTPT/NiBTPT series) is reported as 92%; in the experiment with urease [2] (Table 7, NBTPT/NiBTPT series), 61%. The “% N loss relative to NPTPT without mixing partner” value was determined as 96% with urease [1] (Table 4, NBTPT/NPTPT series); 79% in the experiment with urease [2] (Table 8, NBTPT/NPTPT series); 63% in the experiment with urease [3]; 83% in the experiment on urease [4]. In addition, the “% N loss relative to NNDBTPT without mixing partner” value with urease [2] (Table 11, NBTPT/NNDBTPT series) is 10%. Besides, the “% N loss relative to NNDiTPT without mixing partner” value with urease [2] (setting [7]) worked out at 9%.
Regarding `CCCCN(CCCC)P(N)(N)=S` [NNDBTPT, N,N-di-n-butylthiophosphoric triamide], the “% N loss based on fertilized N quantity” value in the experiment with urease [2] (setting [5]) came to 19.24%. In the experiment with urease [2] (Table 11, NBTPT/NNDBTPT series), the “% N loss relative to NBTPT without mixing partner” value is on record as 1013% and the “% N loss relative to NNDBTPT without mixing partner” value is 100%.
In the case of `CC(C)CN(CC(C)C)P(N)(N)=S` [NNDiBTPT, N,N-di-isobutylthiophosphoric triamide], the “% N loss based on fertilized N quantity” value in the experiment on urease [2] (setting [6]) came to 21.83%. Also, in the experiment with urease [2] (setting [7]), the “% N loss relative to NBTPT without mixing partner” value amounted to 1149% and the “% N loss relative to NNDiTPT without mixing partner” value was determined as 100%.
Regarding `CCCNP(N)(N)=S` [NPTPT, N-n-propylthiophosphoric triamide], the “% N loss based on fertilized N quantity” value was found to be 1.60% in the experiment with urease [1] (Table 4), 0.42% in the experiment with urease [2] (Table 8), 2.08% in the experiment on urease [3] and 1.57% in the experiment on urease [4]. Besides, the “% N loss relative to NBTPT without mixing partner” value in the experiment on urease [1] (Table 4, NBTPT/NPTPT series) amounted to 104%; in the experiment on urease [2] (Table 8, NBTPT/NPTPT series), 127%; in the experiment with urease [3], 158%; in the experiment on urease [4], 121%. Further, the “% N loss relative to NPTPT without mixing partner” value is reported as 100% with urease [1] (Table 4, NBTPT/NPTPT series); 100% in the experiment on urease [2] (Table 8, NBTPT/NPTPT series); 100% in the experiment on urease [3]; 100% in the experiment with urease [4].
Regarding `CCCCCNP(N)(N)=S` [NPenTPT, N-pentylthiophosphoric triamide], the “% N loss based on fertilized N quantity” value is 2.46% with urease [1] (Table 2) and 1.12% in the experiment on urease [2] (Table 6). Besides, the “% N loss relative to NBTPT without mixing partner” value in the experiment with urease [1] (Table 2, NBTPT/NPenTPT series) is reported as 130%; with urease [2] (Table 6, NBTPT/NPenTPT series) it was 158%. Moreover, the “% N loss relative to NPenTPT without mixing partner” value in the experiment with urease [1] (Table 2, NBTPT/NPenTPT series) is 100%; in the experiment with urease [2] (Table 6, NBTPT/NPenTPT series) it was 100%.
Take `NP(N)(=S)NC1CCCCC1` [NcHTPT, N-cyclohexylthiophosphoric triamide]: the entries for the “% N loss based on fertilized N quantity” value with urease [1] (Table 1) and in the experiment on urease [2] (Table 5) were 2.77% and 1.11%, respectively. The “% N loss relative to NBTPT without mixing partner” value was found to be 180% in the experiment on urease [1] (Table 1, NBTPT/NcHTPT series) and 160% in the experiment on urease [2] (Table 5, NBTPT/NcHTPT series). The “% N loss relative to NcHTPT without mixing partner” value came out at 100% with urease [1] (Table 1, NBTPT/NcHTPT series) and 100% in the experiment with urease [2] (Table 5, NBTPT/NcHTPT series).
As to `CC(C)CNP(N)(N)=S` [NiBTPT, N-isobutylthiophosphoric triamide], the “% N loss based on fertilized N quantity” value in the experiment with urease [1] (Table 3) came out at 1.68%; with urease [2] (Table 7), 0.54%. The “% N loss relative to NBTPT without mixing partner” value with urease [1] (Table 3, NBTPT/NiBTPT series) came to 109%; in the experiment with urease [2] (Table 7, NBTPT/NiBTPT series), 164%. The “% N loss relative to NiBTPT without mixing partner” value is 100% in the experiment with urease [1] (Table 3, NBTPT/NiBTPT series) and 100% in the experiment on urease [2] (Table 7, NBTPT/NiBTPT series).

These data come from patent US8075659B2, “Preparations with improved urease-inhibiting effect and urea-containing fertilizers containing the latter” (BASF SE, priority 2006, dated 2011).
